Patent US12071425B2 (Genentech, Inc., priority 2018, dated 2024)
Structures can show the parent of a compound that is named as a salt.

Target: kinase domain of IRE1 alpha (His-tagged kinase dead construct KR, AA G547-L977, D688N) (Homo sapiens (Human), UniProt O75460, D688N)
Assay: IRE1α TR-FRET competition binding assay
Settings: competition with Kinase Tracer 236, 0.1 μM; one hour at room temperature
How it was run: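 Compound displacement of an ATP-site fluorescent tracer (0.1 μM final) measured by TR-FRET after 1 h at room temperature. Protein, a His-tagged D688N kinase/RNase construct from Sf9 cells (0.006 μM final), was pre-bound 1 h at 4° C to Eu anti-His antibody (0.002 μM) in pH 7.5 HEPES buffer.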

Sequence of kinase domain of IRE1 alpha (His-tagged kinase dead construct KR, AA G547-L977, D688N) (O75460 547-977 D688N): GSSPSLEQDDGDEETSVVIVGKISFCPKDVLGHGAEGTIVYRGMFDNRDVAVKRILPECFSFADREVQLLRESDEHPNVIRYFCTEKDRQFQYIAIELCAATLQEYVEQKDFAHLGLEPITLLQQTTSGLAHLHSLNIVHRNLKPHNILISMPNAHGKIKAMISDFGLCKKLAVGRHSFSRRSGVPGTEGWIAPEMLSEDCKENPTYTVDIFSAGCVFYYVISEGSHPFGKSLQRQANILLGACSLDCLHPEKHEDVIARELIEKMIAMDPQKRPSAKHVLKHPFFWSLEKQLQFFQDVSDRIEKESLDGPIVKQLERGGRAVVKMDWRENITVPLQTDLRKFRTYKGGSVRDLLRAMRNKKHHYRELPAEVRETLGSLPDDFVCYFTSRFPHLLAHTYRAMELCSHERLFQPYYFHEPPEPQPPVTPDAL

Cc1cc(NS(=O)(=O)C2CCCC2)cc(F)c1Oc1ncccc1-c1ccnc(N[C@H]2CCCNC2)n1 [Compound 116, (S)-N-(3-fluoro-5-methyl-4-((3-(2-(piperidin-3-ylamino)pyrimidin-4-yl)pyridin-2-yl)oxy)phenyl)cyclopentanesulfonamide hydrochloride]
IC50: 23 nM

Cc1cc(NS(=O)(=O)C2CCCCC2)cc(F)c1Oc1ncccc1-c1ccnc(N[C@H]2CCCNC2)n1 [Compound 117, (S)-N-(3-fluoro-5-methyl-4-((3-(2-(piperidin-3-ylamino)pyrimidin-4-yl)pyridin-2-yl)oxy)phenyl)cyclohexanesulfonamide hydrochloride]
IC50: 21 nM

CCCS(=O)(=O)Nc1cc(C)c(Oc2ncccc2-c2ccnc(N[C@H]3CC[C@H](N)CC3)n2)c(F)c1 [Compound 118, N-(4-((3-(2-(((1r,4r)-4-aminocyclohexyl)amino)pyrimidin-4-yl)pyridin-2-yl)oxy)-3-fluoro-5-methylphenyl)propane-1-sulfonamide hydrochloride]
IC50: 47 nM

Cc1cc(NS(=O)(=O)Cc2ccccc2)cc(F)c1Oc1ncccc1-c1ccnc(N[C@H]2CC[C@H](N)CC2)n1 [Compound 119, N-(4-((3-(2-(((1r,4r)-4-aminocyclohexyl)amino)pyrimidin-4-yl)pyridin-2-yl)oxy)-3-fluoro-5-methylphenyl)-1-phenylmethanesulfonamide hydrochloride]
IC50: 13 nM

Cc1cc(NC(=O)C2CC2)cc(F)c1Oc1ncccc1-c1ccnc(N[C@H]2CC[C@H](N)CC2)n1 [Compound 120, N-(4-((3-(2-(((1r,4r)-4-aminocyclohexyl)amino)pyrimidin-4-yl)pyridin-2-yl)oxy)-3-fluoro-5-methylphenyl)cyclopropanecarboxamide hydrochloride]
IC50: 110 nM

CCCS(=O)(=O)Nc1cc(F)c(Oc2ncccc2-c2ccnc(N[C@H]3CC[C@H](N)CC3)n2)c(Cl)c1 [Compound 121, N-(4-((3-(2-(((1r,4r)-4-Aminocyclohexyl)amino)pyrimidin-4-yl)pyridin-2-yl)oxy)-3-chloro-5-fluorophenyl)propane-1-sulfonamide hydrochloride]
IC50: 26 nM

CCCS(=O)(=O)Nc1cc(F)c(Oc2ncccc2-c2ccnc(N[C@H]3CC[C@H](N)CC3)n2)c(F)c1 [Compound 122, N-(4-((3-(2-(((1r,4r)-4-aminocyclohexyl)amino)pyrimidin-4-yl)pyridin-2-yl)oxy)-3,5-difluorophenyl)propane-1-sulfonamide hydrochloride]
IC50: 20 nM

Cc1c(NS(=O)(=O)c2ccccc2Cl)ccc(Oc2ncccc2-c2ccnc(N[C@H]3CCCNC3)n2)c1C [Compound 123, (S)-2-Chloro-N-(2,3-dimethyl-4-((3-(2-(piperidin-3-ylamino)pyrimidin-4-yl)pyridin-2-yl)oxy)phenyl)benzenesulfonamide]
IC50: 50 nM

CCCS(=O)(=O)Nc1cc(C)c(Oc2ncccc2-c2ccnc(N[C@H]3CCCNC3)n2)cc1C [Compound 124, (S)-N-(2,5-Dimethyl-4-((3-(2-(piperidin-3-ylamino)pyrimidin-4-yl)pyridin-2-yl)oxy)phenyl)propane-1-sulfonamide]
IC50: 210 nM

Cc1cc(Oc2ncccc2-c2ccnc(N[C@H]3CCCNC3)n2)c(C)cc1NS(=O)(=O)c1ccccc1Cl [Compound 125, (S)-2-chloro-N-(2,5-dimethyl-4-((3-(2-(piperidin-3-ylamino)pyrimidin-4-yl)pyridin-2-yl)oxy)phenyl)benzenesulfonamide]
IC50: 27 nM

CCCS(=O)(=O)Nc1cc(C)c(Oc2ncccc2-c2ccnc(N[C@H]3CCCNC3)n2)cc1C [Compound 126, (S)-N-(2,5-Dimethyl-4-((3-(2-(piperidin-3-ylamino)pyrimidin-4-yl)pyridin-2-yl)oxy)phenyl)propane-1-sulfonamide]
IC50: 280 nM

CCCS(=O)(=O)Nc1ccc(F)c(Oc2ncccc2-c2ccnc(N[C@H]3CCCNC3)n2)c1 [Compound 127, (S)-N-(4-fluoro-3-((3-(2-(piperidin-3-ylamino)pyrimidin-4-yl)pyridin-2-yl)oxy)phenyl)propane-1-sulfonamide]
IC50: 370 nM

O=S(=O)(Nc1ccc(F)c(Oc2ncccc2-c2ccnc(N[C@H]3CCCNC3)n2)c1)c1ccccc1Cl [Compound 128, (S)-2-Chloro-N-(4-fluoro-3-((3-(2-(piperidin-3-ylamino)pyrimidin-4-yl)pyridin-2-yl)oxy)phenyl)benzenesulfonamide]
IC50: 11 nM

Cc1c(NC(=O)CC2CCCCC2)ccc(Oc2ncccc2-c2ccnc(N[C@H]3CCCNC3)n2)c1C [Compound 129, (S)-2-Cyclohexyl-N-(2,3-dimethyl-4-((3-(2-(piperidin-3-ylamino)pyrimidin-4-yl)pyridin-2-yl)oxy)phenyl)acetamide]
IC50: 230 nM

Cc1c(NC(=O)Cc2ccc(Cl)cc2)ccc(Oc2ncccc2-c2ccnc(N[C@H]3CCCNC3)n2)c1C [Compound 130, (S)-2-(4-Chlorophenyl)-N-(2,3-dimethyl-4-((3-(2-(piperidin-3-ylamino)pyrimidin-4-yl)pyridin-2-yl)oxy)phenyl)acetamide]
IC50: 170 nM

Cc1cc(NS(=O)(=O)c2ccccc2Cl)cc(C)c1Oc1ncccc1-c1ccnc(N[C@H]2CCCNC2)n1 [Compound 131, (S)-2-Chloro-N-(3,5-dimethyl-4-((3-(2-(piperidin-3-ylamino)pyrimidin-4-yl)pyridin-2-yl)oxy)phenyl)benzenesulfonamide hydrochloride]
IC50: 59 nM

O=S(=O)(Nc1cccc(Oc2ncccc2-c2ccnc(N[C@H]3CCCNC3)n2)c1)c1ccccc1Cl [Compound 132, (S)-2-Chloro-N-(3-((3-(2-(piperidin-3-ylamino)pyrimidin-4-yl)pyridin-2-yl)oxy)phenyl)benzenesulfonamide hydrochloride]
IC50: 32 nM

O=S(=O)(Cc1ccccc1)Nc1cccc(Oc2ncccc2-c2ccnc(N[C@H]3CCCNC3)n2)c1 [Compound 133, (S)-1-Phenyl-N-(3-((3-(2-(piperidin-3-ylamino)pyrimidin-4-yl)pyridin-2-yl)oxy)phenyl)methanesulfonamide hydrochloride]
IC50: 120 nM

O=S(=O)(Nc1ccc(Oc2ncccc2-c2ccnc(N[C@H]3CCCNC3)n2)cc1)c1ccccc1Cl [Compound 134, (S)-2-Chloro-N-(4-((3-(2-(piperidin-3-ylamino)pyrimidin-4-yl)pyridin-2-yl)oxy)phenyl)benzenesulfonamide hydrochloride]
IC50: 21 nM

Cc1ccc(NS(=O)(=O)c2ccccc2Cl)cc1Oc1ncccc1-c1ccnc(N[C@H]2CCCNC2)n1 [Compound 135, (S)-2-Chloro-N-(4-methyl-3-((3-(2-(piperidin-3-ylamino)pyrimidin-4-yl)pyridin-2-yl)oxy)phenyl)benzenesulfonamide hydrochloride]
IC50: 41 nM

Cc1ccc(NS(=O)(=O)Cc2ccccc2)cc1Oc1ncccc1-c1ccnc(N[C@H]2CCCNC2)n1 [Compound 136, (S)—N-(4-Methyl-3-((3-(2-(piperidin-3-ylamino)pyrimidin-4-yl)pyridin-2-yl)oxy)phenyl)-1-phenylmethanesulfonamide hydrochloride]
IC50: 200 nM

O=S(=O)(Nc1ccc(Cl)c(Oc2ncccc2-c2ccnc(N[C@H]3CCCNC3)n2)c1F)c1ccccc1Cl [Compound 137, (S)-2-Chloro-N-(4-chloro-2-fluoro-3-((3-(2-(piperidin-3-ylamino)pyrimidin-4-yl)pyridin-2-yl)oxy)phenyl)benzenesulfonamide hydrochloride]
IC50: 7.4 nM

O=S(=O)(Cc1ccccc1)Nc1ccc(Cl)c(Oc2ncccc2-c2ccnc(N[C@H]3CCCNC3)n2)c1F [Compound 138, (S)—N-(4-Chloro-2-fluoro-3-((3-(2-(piperidin-3-ylamino)pyrimidin-4-yl)pyridin-2-yl)oxy)phenyl)-1-phenylmethanesulfonamide]
IC50: 15 nM

Cc1c(NS(=O)(=O)c2ccccc2Cl)cccc1Oc1ncccc1-c1ccnc(N[C@H]2CCCNC2)n1 [Compound 139, (S)-2-Chloro-N-(2-methyl-3-((3-(2-(piperidin-3-ylamino)pyrimidin-4-yl)pyridin-2-yl)oxy)phenyl)benzenesulfonamide hydrochloride]
IC50: 46 nM

Cc1c(NS(=O)(=O)Cc2ccccc2)cccc1Oc1ncccc1-c1ccnc(N[C@H]2CCCNC2)n1 [Compound 140, (S)—N-(2-Methyl-3-((3-(2-(piperidin-3-ylamino)pyrimidin-4-yl)pyridin-2-yl)oxy)phenyl)-1-phenylmethanesulfonamide hydrochloride]
IC50: 26 nM

O=S(=O)(Nc1cccc(Oc2ncccc2-c2ccnc(N[C@H]3CCCNC3)n2)c1F)c1ccccc1Cl [Compound 141, (S)-2-Chloro-N-(2-fluoro-3-((3-(2-(piperidin-3-ylamino)pyrimidin-4-yl)pyridin-2-yl)oxy)phenyl)benzenesulfonamide hydrochloride]
IC50: 17 nM

O=S(=O)(Cc1ccccc1)Nc1cccc(Oc2ncccc2-c2ccnc(N[C@H]3CCCNC3)n2)c1F [Compound 142, (S)—N-(2-Fluoro-3-((3-(2-(piperidin-3-ylamino)pyrimidin-4-yl)pyridin-2-yl)oxy)phenyl)-1-phenylmethanesulfonamide hydrochloride]
IC50: 16 nM

CCCS(=O)(=O)Nc1ccc(Cl)c(Oc2ncccc2-c2ccnc(N[C@H]3CCCNC3)n2)c1F [Compound 143, (S)—N-(4-Chloro-2-fluoro-3-((3-(2-(piperidin-3-ylamino)pyrimidin-4-yl)pyridin-2-yl)oxy)phenyl)propane-1-sulfonamide hydrochloride]
IC50: 34 nM

CCCS(=O)(=O)Nc1cccc(Oc2ncccc2-c2ccnc(N[C@H]3CCCNC3)n2)c1F [Compound 144, (S)—N-(2-Fluoro-3-((3-(2-(piperidin-3-ylamino)pyrimidin-4-yl)pyridin-2-yl)oxy)phenyl)propane-1-sulfonamide hydrochloride]
IC50: 370 nM
